Experimental data reported in patent US20240299328A1, “COMPOSITIONS COMPRISING 15-HEPE AND METHODS OF TREATING AND/OR PREVENTING HEMATOLOGIC DISORDERS AND RELATED DISEASES” (Afimmune Limited, priority 2023, published 2024).

Experiments:
Sprague Dawley rats = test: 26 week rat toxicity study: tolerability, clinical signs; assay type: in vivo; conditions: 6 g/kg/day oral gavage, replaced with 3 g/kg/day
Protocol: The test and control items were administered to the appropriate animals by once daily oral gavage 7 days a week for a minimum of 26 weeks. The volume for each animal was based on the most recent body weight measurements. The doses were given using a syringe with attached gavage cannula. The first day of dosing was designated as Day 1. The dosing formulations were removed from the refrigerator and stirred for at least 30 minutes before dosing. The dosing formulations were also stirred continuously during dosing.
Due to the onset of clinical signs, including hunched posture, erect fur and abnormal gait and body weight loss, animals 3206M, 3515F and 3703F were given a dosing holiday from Day 45 and remaining Group 3 animals were given a dosing holiday from Day 48. Animals will start dosing at the lower dose level (3000 mg/kg/day) from Day 64. The following tables illustrate the treatments (Table 22) and animal groupings (Table 23) that were used in the study.
Mortality/moribundity checks were made daily. […] Animals were not removed from the cage during observation, unless necessary for identification or confirmation of possible findings.
Post-dose observations were made regularly throughout the day. […] The onset, intensity, and duration of these signs were recorded; particular attention was paid to the animals during and for the first hour after dosing.

BDL-operated mice = test: BDL study: serum biochemistry (ALT, total bilirubin); assay type: in vivo
Protocol: Sample Collection: For serum samples, non-fasting blood was collected in serum separate tubes without anticoagulant through direct cardiac puncture and centrifuged at 3,500×g for 4 minutes at 4° C. The superatant was collected and stored at −80° C. for biochemistry (30 μL) and shipping (all the remaining). For liver samples, left lateral lobe was collected and cut into 6 pieces. Two pieces of left lateral lobe were fixed in Bouin's solution and then embedded in paraffin. Samples were stored at room temperature for histological analysis. The other 2 pieces of left lateral lobe were embedded in O.C.T. compound and quick frozen in liquid nitrogen. Samples were stored at −80° C. The remaining pieces of left lateral lobe was snap frozen in liquid nitrogen and stored at −80° C. for gene expression analyses. Right medial lobe, left medial lobe, right lobe and caudate lobe were snap frozen in liquid nitrogen and stored at −80° C. for shipping.

NAFLD patients = test: Phase IIa study in NAFLD patients: metabolic, glycemic, lipid and liver parameters; assay type: in vivo, human
Protocol: The study was planned to include 96 evaluable patients with 32 patients randomized per treatment group.
HOMA-IR/Adipo-IR: HOMA-IR/Adipo-IR levels are a method of measuring insulin resistance. HOMA-IR is calculated by multiplying fasting plasma insulin (FPI) by fasting plasma glucose (FPG), then dividing by the constant 405. Adipo-IR is calculated by multiplying fasting non-esterified fatty acids (NEFA)×fasting insulin. Blood samples were taken to assess HOMA-IR and Adipo-IR at Visit 2/Baseline, Visit 3/Week 2, Visit 4/Week 4, Visit 6/Week 8, Visit 8/Week 12, Visit 10/Week 16 and Follow up Visit 11/Week 20. All subjects were required to have been fasted for a minimum of 8 hours prior to blood sampling. If subjects had not fasted for a minimum of 8 hours, the duration of fasting time was recorded, and subjects encouraged to fast appropriately for the next clinical visit.
Liver stiffness and CAP: Liver stiffness and CAP were assessed using transient elastography (e.g., FibroScan® 502 Touch model or equivalent). Patients were fasted and scanned at the same time of the day, if possible, for baseline (Week 0) and Visit 10 (Week 16). For this assessment the following conditions were met: patients were lying in dorsal decubitus position with the right arm in maximal abduction behind the head, in a similar position to that used for liver biopsy (LB); the tip of the transducer was placed on the skin between the ribs over the right lobe of the liver (the physician took the measurements with the probe placed in the intercostal space); during the FibroScan® examination the choice of M+ or XL+ probe was determined by the Automatic Probe Selection tool (APS) (If, the APS tool advises to use the “XL+ probe” or “switch” continuously between “M+ and XL+ probe”, only the XL+ probe was used); and the operator, assisted by an ultrasonic time motion image, located a portion of the liver which is free of large vascular structures (the depth of measurement was between 35-75 mm for the XL+ probe and 25-65 mm for the M+ probe and the explored volume will be 3 cm^3). For each patient, the operator performed an examination including at least 10 valid measurements or a maximum of 20 attempts, with the XL+ or M+ probe, at the same spot. The entire examination lasted no more than 10-15 minutes. The final stiffness and CAP values was recorded as median values of valid measurements.
Clinical Laboratory Safety Tests: Safety tests were performed for hematology, serum biochemistry, coagulation, lipid profile, and urinalysis: Blood and urine samples were taken as per the Study Flow Chart in Table 19 for routine hematology, serum biochemistry, coagulation and urinalysis tests, along with a Lipid Profile. All samples were analyzed in the central laboratory. All subjects were fasted for a minimum of 8 hours prior to blood sampling. If subjects had not fasted for a minimum of 8 hours, the duration of fasting time was recorded, and subjects encouraged to fast appropriately for the next clinical visit. • Hematology: Full blood count to include red cell count, hemoglobin, hematocrit, white cell count, differential white cell count, platelet count and reticulocyte count. • Serum biochemistry: Urea (blood urea nitrogen; BUN), creatinine, uric acid, total bilirubin, Indirect and Direct Bilirubin, sodium, bicarbonate potassium, phosphorus, calcium chloride, alkaline phosphatase (ALP), aspartate aminotransferase (AST), alanine aminotransferase (ALT), ALT/AST ratio, lactate dehydrogenase (LDH), creatine phosphokinase (CPK), albumin, total protein, cholesterol, triglycerides, glucose, C-reactive protein (CRP). • Coagulation: prothrombin time (PT), international normalized ratio (INR) and activated partial […]. • Lipid Profile: LDL, HDL, and VLDL-C. • Urinalysis: pH, protein, glucose, blood, ketones, leukocytes, leukocyte esterase, bilirubin, specific gravity, urobilinogen and nitrate. […]

[1] = 50 mg/kg PO QD Day 0-13, Day 14, mean ± SD
[2] = 250 mg/kg PO QD Day 0-13, Day 14, mean ± SD
[3] = 500 mg/kg PO QD Day 0-13, Day 14, mean ± SD
[4] = DS102 50, 250, 500 mg/kg groups vs Vehicle group

Compound: CC/C=C\C[C@H](O)/C=C/C=C\C/C=C\C/C=C\CCCC(=O)OCC [DS102, 15(S)-hydroxy-(5Z,8Z,11Z,13E,17Z)-eicosapentaenoic acid ethyl ester]
- tolerability of the highest dose (Sprague Dawley rats): not well tolerated
- Serum ALT (BDL-operated mice; [1]): 402 ± 112 U/L
- Serum Total Bilirubin (BDL-operated mice; [1]): 26.8 ± 6.9 mg/dL
- Serum ALT (BDL-operated mice; [2]): 351 ± 155 U/L
- Serum Total Bilirubin (BDL-operated mice; [2]): 23.5 ± 9.8 mg/dL
- Serum ALT (BDL-operated mice; [3]): 383 ± 147 U/L
- Serum Total Bilirubin (BDL-operated mice; [3]): 26.2 ± 6.1 mg/dL
- serum ALT level (BDL-operated mice; [4]): no significant differences
- serum total bilirubin level (BDL-operated mice; [4]): no significant differences
- hepatic fat content as assessed by CAP (NAFLD patients): reduced
- insulin sensitivity and glycemic control (NAFLD patients; 1 g or 2 g per day, 16 weeks): improvement
- markers of metabolic overload (NAFLD patients; 1 g or 2 g per day, 16 weeks): statistically significant reduction
- insulin resistance indices (HOMA-IR and adipo-IR levels) (NAFLD patients; 1 g or 2 g per day, Week 16): improvement
- glycemic control (HbA1c levels) (NAFLD patients; 1 g or 2 g per day, baseline to Week 16, dose-dependent): clinically significant improvements
- insulin, glucose, and free fatty acid levels (NAFLD patients; 1 g or 2 g per day, baseline to Week 16 vs placebo): reduction
- alkaline phosphate (ALP) (NAFLD patients; 2 g): reduced
- Triglycerides (median placebo-corrected % change from baseline) (NAFLD patients; 2 g, Week 16, Full Analysis Set): −40.2%
- insulin resistance indices (HOMA-IR and adipo-IR levels) (NAFLD patients; 2 g, Week 16, Per Protocol Set (PPS)): significant improvements
- Triglycerides (median placebo-corrected % change from baseline) (NAFLD patients; 2 g, Week 16, Subgroup: High Triglycerides (>200 mg/dL)): −20.4%
- Triglycerides (median placebo-corrected % change from baseline) (NAFLD patients; 2 g, Week 16, Subgroup: Triglycerides > Upper Limit Normal (>150 mg/dL)): −39.0%
- lipid profile (total cholesterol, VLDL-C, non-HDL-C, RLP cholesterol, triglyceride levels) (NAFLD patients; Week 16, safety analysis set (SAS)): significantly improved
